EC50 data for two molecules are collected here from ChEMBL document CHEMBL1949652, “First enantioselective syntheses of the dopamine D1 and D2 receptor modulators, (+)- and (-)-govadine” (Bioorg Med Chem Lett, 2012).

Each structure is given as a SMILES string. Some results are limits rather than exact numbers.

The target in assay [1] is D(1A) dopamine receptor (Homo sapiens, UniProt P21728). Briefly: Antagonist activity at dopamine D1 receptor. The format is functional.
The target of assay [2] is D(2) dopamine receptor (Homo sapiens, UniProt P14416). In words: Antagonist activity at dopamine D2 receptor. The format is functional.
Chain of D(2) dopamine receptor (P14416 whole entry): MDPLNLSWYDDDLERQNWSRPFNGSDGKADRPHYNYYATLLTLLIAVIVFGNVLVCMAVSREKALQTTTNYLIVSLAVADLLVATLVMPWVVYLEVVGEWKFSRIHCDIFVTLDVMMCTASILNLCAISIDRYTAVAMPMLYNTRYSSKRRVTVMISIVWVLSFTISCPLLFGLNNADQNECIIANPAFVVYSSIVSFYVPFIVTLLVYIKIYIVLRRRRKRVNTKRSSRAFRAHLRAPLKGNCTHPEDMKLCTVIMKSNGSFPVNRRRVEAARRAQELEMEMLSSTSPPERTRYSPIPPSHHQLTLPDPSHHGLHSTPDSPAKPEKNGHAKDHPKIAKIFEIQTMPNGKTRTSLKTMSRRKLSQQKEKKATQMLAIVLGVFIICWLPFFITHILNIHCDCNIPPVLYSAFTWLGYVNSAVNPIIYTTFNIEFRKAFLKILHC

Chain of D(1A) dopamine receptor (P21728 whole entry): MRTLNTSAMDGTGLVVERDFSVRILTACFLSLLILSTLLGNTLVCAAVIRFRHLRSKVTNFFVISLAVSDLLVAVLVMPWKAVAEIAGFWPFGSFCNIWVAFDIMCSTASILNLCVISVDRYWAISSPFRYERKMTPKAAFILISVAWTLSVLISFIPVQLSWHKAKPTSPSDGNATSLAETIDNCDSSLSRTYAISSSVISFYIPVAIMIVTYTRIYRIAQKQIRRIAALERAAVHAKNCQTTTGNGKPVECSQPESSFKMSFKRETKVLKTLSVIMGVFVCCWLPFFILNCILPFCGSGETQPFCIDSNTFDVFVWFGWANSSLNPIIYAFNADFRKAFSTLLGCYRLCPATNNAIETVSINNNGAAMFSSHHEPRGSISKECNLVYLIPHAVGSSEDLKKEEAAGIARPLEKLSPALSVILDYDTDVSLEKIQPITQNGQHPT

With `COc1cc2c(cc1O)CN1CCc3cc(OC)c(O)cc3[C@@H]1C2`, the EC50 in assay [1] worked out at 0.0056 µM; in assay [2], 56 µM.
On to `COc1cc2c(cc1O)CN1CCc3cc(OC)c(O)cc3[C@H]1C2`, for which the EC50 in assay [1] is greater than 100 µM; in assay [2], 14 µM.
